# Measured values taken from ChEMBL document CHEMBL3507680, “University of Dundee, Gates Library screen for HepG2 cell viability”.
# Assay: Human HepG2 cell viability assay in 384 well format
# Assay type: toxicity, cell-based
# Set-up: dose 125 nL, time 70.5 hour; concentration not given beside the values
# Conditions: HepG2 cells, read-out: Inhibition
row,Compound,cytotoxicity at 70.5 h
1,Cc1cnn(CC2CN(Cc3nccn3C)CCO2)c1 (stereo unspecified),-10.6%
2,CCCn1cc2c(C(F)F)cc(SCC(=O)O)nc2n1,-8.88%
3,CCN(CC)CCNS(=O)(=O)c1cccc(CSC)c1,-8.72%
4,Cc1cccc(CN2CC[C@H]3OCC[C@@]3(C(=O)N3CCCO3)C2)n1,-2.84%
5,CC(Cn1cncn1)NCc1csc2c1CCCC2 (stereo unspecified),-0.547%
6,O=C(NCc1cccs1)c1nc2c(o1)CN(CC1CC1)C2,-9.19%
7,O=C(Cn1c(=O)n(Cc2ccco2)c2ncccc21)NC1CC1,-4.4%
8,Cc1nc(N2CCCC2)nc2c1CCN(Cc1ccoc1)CC2,-6.88%
9,Cc1nc(CO[C@@H]2CN(Cc3ccco3)[C@@H]3COC[C@@H]32)cs1,-14.3%
10,O=C(NCC1CCOCC1)[C@@H]1C[C@@H]2CCN(Cc3ccco3)C[C@H]2O1,-5.42%
11,O=c1[nH]c2cc3c(cc2cc1CN1CCCC1c1ccccn1)OCO3 (stereo unspecified),-4.33%
12,O=C(Nc1ccnc(OC2CCOC2)c1)c1cccs1 (stereo unspecified),-4.23%
13,Cc1oc2nc[nH]c(=O)c2c1C(=O)N1CCCC(n2cccn2)C1 (stereo unspecified),-4.01%
14,CSCCCN1CCCC1c1noc(C(C)C)n1 (stereo unspecified),-0.353%
15,CN(Cc1ccc2c(c1)OCO2)C(=O)c1ccn(C)c(=O)c1,-10.8%
16,Cc1cc(-c2nn3c(C4CC4)nnc3s2)on1,12.2%
17,Cc1oc(-c2ccoc2)nc1CN1CCCCC1CCc1ccccc1 (stereo unspecified),-2.03%
18,O=C1NCc2ccccc2CC12CCN(Cc1ccccc1Cl)CC2,-3.39%
19,N#Cc1ccc(C(=O)N2CC[C@H]3[C@@H]2CCC(=O)N3c2cccnc2)cc1,-6.84%
20,CC(C)Cn1ncc(C(=O)NS(=O)(=O)c2ccccc2)c1C1CC1,-8.45%
21,O=c1[nH]nc2c(S(=O)(=O)N3CCOCC3)cccn12,-9.51%
22,CC(=O)N1[C@H](Cn2cncn2)C[C@@H]2CN(Cc3ccccn3)CC[C@@H]21,17.3%
23,O=C(CCc1cccc(F)c1F)N1CCCC(n2cncn2)C1 (stereo unspecified),-6.22%

row,Compound,cytotoxicity at 70.5 h
1,COc1cccc(CNc2nnc(C(C)(C)C)o2)c1OC,-11.6%
2,CS(=O)(=O)N1CC[C@@H]2O[C@@H](COCC(=O)N3CCCC3)CC[C@@H]21,22.1%
3,Cc1cc(C)n(-c2ccc(CNCc3ccc(C)o3)cn2)n1,-7.08%
4,CCOCC(=O)N1CC[C@H]2O[C@@H](C)C[C@H]2C1,-12.8%
5,CS(=O)(=O)CCNC(=O)C1(c2cccc(Cl)c2)CCCCC1,17.7%
6,C[C@@H]1CN(C(=O)CCc2cnn(C)c2)CC[C@@]1(O)C1CCOCC1,8.15%
7,OC1(CN2CCc3nnc(Cc4cccnc4)n3CC2)CCCNC1 (stereo unspecified),-4.53%
8,COCC1CN(C(=O)c2cccn2C)Cc2ncnn2C1 (stereo unspecified),-3.03%
9,CCN1CCCC(NC(=O)c2ccc(C)[nH]c2=O)C1 (stereo unspecified),-8.86%
10,COCCNS(=O)(=O)c1cccc2c1CN(C(=O)c1ccoc1)CC2,-10.7%
11,Cc1ccc(NC(=O)CN(C)C(=O)c2ccc(-n3cccc3)nc2)nc1,-1.66%
12,Cc1noc(C)c1CN1C[C@@H]2OCCN(Cc3cnn(C)c3)[C@@H]2C1,-21.6%
13,O=C(C1CC1)N1CC2(CCN(CC3CC3)CC2)c2cc(F)ccc21,25.9%
14,O=C([C@H]1C[C@@H]2CCN(c3cccc(F)c3)C[C@H]2O1)N1CCCCO1,-13.4%
15,CC(COc1ccccc1)NCc1nc(-c2cccnc2)no1 (stereo unspecified),-1.13%
16,CN1CCN(C(=O)c2ccc3c(c2)nc(N2CCOCC2)n3C)CC1=O,-5.46%
17,Cc1cnn(CCNCC(O)c2ccc(C(F)(F)F)cc2)c1 (stereo unspecified),-17.1%
18,CC(=O)NCC1CCN(C(=O)CCOc2ccc(C(C)C)cc2)CC1,-0.488%
19,Cc1nc(CN(C)C2CCN(CC(=O)N(C)CCC#N)C2)no1 (stereo unspecified),0.0577%
20,CCn1nc(C)cc1C(=O)NCc1cc(N(C)C)nc2ccccc12,9.21%
21,CCc1ccc(CN2CCC(c3ccccc3C(=O)O)C2)nc1 (stereo unspecified),-13.9%
22,COC1CN(C(=O)C2CC2)CCC(=O)N(C)c2ccccc21 (stereo unspecified),2.56%
23,COc1ccc(CN2CCCC2c2cccc(F)c2)c(OC)c1OC (stereo unspecified),-6.93%

row,Compound,cytotoxicity at 70.5 h
1,Nc1cnc(-c2ccc(F)cc2Cl)cn1,10.8%
2,Cc1cc(NC(=O)CN2CCCC2c2noc(C(C)C)n2)n(C)n1 (stereo unspecified),-7.61%
3,Cc1nc(C)n(CC2CCCN2CCOc2ccccc2C#N)n1 (stereo unspecified),-13.6%
4,CN1C(=O)C2(CCN(C(=O)c3cccnc3)CC2)c2cccc(F)c21,-2.04%
5,CCN(C(C)=O)C(c1ccc(Cl)cc1)c1ccccn1 (stereo unspecified),-14.6%
6,CNC(=O)CN1CCC(OCC2CCCO2)CC1 (stereo unspecified),-8.23%
7,CNC(=O)[C@@H]1COC[C@H]2CN(C(=O)c3cccc(OC)c3)C[C@H]21,9.55%
8,COC1CN(C(=O)CC2CCCC2)CCC(=O)N(C)c2ccccc21 (stereo unspecified),21.5%
9,c1cncc(COC[C@H]2CC[C@H]3[C@H](CCN3Cc3nccs3)O2)c1,-0.559%
10,COCCN1C[C@@H]2[C@@H](OC)CCN(S(=O)(=O)c3cccnc3)[C@@H]2C1,-12.3%
11,Cc1cc(C)nc(NC(C)Cc2cnccn2)n1 (stereo unspecified),-14%
12,CN1CC(Oc2ccc(Cl)cc2)=NC(SCC(=O)c2ccccc2)=N1,14.8%
13,CCc1cnc(N)nc1NCCCn1nc(C)nc1C,-9.39%
14,Cc1cnccc1CN1C[C@@H](O)[C@H](Oc2cccc(F)c2)C1,-3.81%
15,CC(=O)c1ccc(OCC(=O)NC(C)CCc2ccco2)cc1 (stereo unspecified),-18.1%
16,Cc1cccc(NC2CCN(C(=O)Nc3ccc(F)c(F)c3)CC2)n1,-4.64%
17,CO[C@H]1CCN(c2nnc(C)s2)C[C@@H]1Cc1cccc(C)c1,7.81%
18,Cc1ccc(C(=O)NCc2ccnc(N3CCN(C)CC3)c2)cn1,-10%
19,O=C(NCc1nc(NC2CCCC2)c2cc(Cl)ccc2n1)c1cncs1,-13.7%
20,Fc1ccc(-c2nc(CNC3CCc4ncnn4C3)co2)cc1 (stereo unspecified),-4.87%
21,Cc1ccc(N2CCCC(NCc3cnc(C)s3)C2)nn1 (stereo unspecified),-1.22%
22,CO[C@H]1CN(CC2CCOCC2)[C@@H]2CCCO[C@H]12,-7.16%
23,COc1ccc(NC(=O)C2CCCO2)cc1OCc1cccnc1 (stereo unspecified),49.9%

row,Compound,cytotoxicity at 70.5 h
1,CCc1nccn1C1CCCN(C(=O)c2c(C)nsc2NC)C1 (stereo unspecified),-7.79%
2,O=C(c1ccco1)N1C[C@H]2CCCN(Cc3nccs3)[C@H]2C1,-11.3%
3,Cc1ccccc1OCn1ccc(C(=O)NCCN2CCOCC2)n1,-12.2%
4,Cc1nc(C(=O)N2CCCN(Cc3cnn(C)c3)CC2)ccc1C#N,-8.5%
5,CS(=O)(=O)N1CCCn2nc(CNc3cc(C#N)ccn3)cc2C1,-6.16%
6,CCn1nc(C)cc1C(=O)NCc1noc(C(C)(C)C)n1,-1.63%
7,Cc1nc2c(c(N(C)C)n1)CCN(C(=O)c1ccc(N)nc1)C2,-7.14%
8,O=C(c1ccnc(CC2COc3ccccc3C2)c1)N1CCCC1 (stereo unspecified),-23.5%
9,Cc1ocnc1C(=O)N1CCC2(CC1)c1nc[nH]c1CCN2CC(C)C,27.1%
10,CC1c2ncc(COc3cccnc3)n2CCN1C(=O)Cc1ccco1 (stereo unspecified),-13.8%
11,O=C(CNC(=O)c1cc(Cl)ccn1)Nc1nccs1,-4.32%
12,NC(=O)CN1C(=O)CO[C@H]2CN(Cc3ccc(Cl)cc3)C[C@H]21,13%
13,COCc1ccc(C(=O)N2CCCN(c3ccc(F)cc3)CC2)s1,5.91%
14,CC(C)(C)NC(=O)[C@@H]1Cc2ccccc2CN1Cc1cccs1,8.37%
15,COCCCC(=O)NCc1cccc(NC(N)=O)c1,-3.29%
16,COc1cccc(CCNC(=O)c2ccc(=O)n(C)c2)c1,-2.94%
17,O=C(CCCNc1ncccn1)N1CCCC(n2cccn2)C1 (stereo unspecified),34.1%
18,CCN1CCC2(CCN(Cc3ccc(OC)cc3)CC2)C1=O,-3.84%
19,CC(C)Cc1cc(CN2C[C@H]3CC[C@@H]2CN(Cc2cscn2)C3)n[nH]1,12.5%
20,O=C(O)CCN(Cc1ccc(F)c(F)c1)C(=O)C1CC1,-11.3%
21,OCCn1ncc2c1CN(CC1CCOc3ccccc3C1)C2 (stereo unspecified),-0.723%
22,Cc1cc(C)n(C2CCCN(C(=O)c3c(C)noc3C)C2)n1 (stereo unspecified),-7.4%
23,Cc1nccn1C1CCCN(C(=O)COCC2CC2)C1 (stereo unspecified),-6.29%

row,Compound,cytotoxicity at 70.5 h
1,O=C(c1ccccc1F)N1CC[C@@H]2CN(c3ncccn3)CCO[C@@H]2C1,4.95%
2,CNc1ncccc1C(=O)N1CCCC2(CCN(C)CC2)CC1,-1.7%
3,CC(C)Cc1noc(CN2CCN(S(C)(=O)=O)CC2)n1,-7.6%
4,c1ccc(CO[C@@H]2C[C@H]3CN(c4ncccn4)CCN3C2)nc1,-7.06%
5,CCc1ccc(CNC[C@H]2C[C@@H](CO)N(C)[C@H]2c2ccccc2F)o1,-2.04%
6,N#Cc1ccc(NC(=O)C2CSCN2)cc1 (stereo unspecified),-6.81%
7,CN(Cc1cccnc1)[C@@H]1CN(C(=O)CC2CC2)[C@@H]2CCCO[C@H]12,0.0586%
8,CC(C)CN1CC(c2nc(-c3cccc(F)c3)c[nH]2)CC1=O (stereo unspecified),-7.31%
9,CCc1cc(O)n2nc(C3CCN(C(=O)c4ccccn4)CC3)cc2n1,-0.453%
10,Cc1ccc(C(=O)NC2CCN(CC(=O)N(C)c3ccccc3)CC2)o1,-4.99%
11,COc1ccc(NC(=O)Cn2nc(C)c(C)cc2=O)cc1,1.99%
12,Cc1cnn(CCNC(C)C(=O)Nc2ccc(Cl)cn2)c1 (stereo unspecified),-9.14%
13,Cc1nnc(N2CCC(NS(C)(=O)=O)CC2)c(C#N)c1C,-5.64%
14,Cc1nnc(CN(C)C2CCN(CCc3cccs3)C2)n1C (stereo unspecified),15.2%
15,Cc1nc(C2CCCN(C(=O)c3ccc(N4CCCC4)nc3)C2)no1 (stereo unspecified),1.03%
16,O=C1NCC2(CCCN(C(=O)c3ccc4c(c3)OCCO4)CC2)O1 (stereo unspecified),-2.63%
17,Cc1nc2sccn2c1C(=O)N1CCc2c(nc(N(C)C)[nH]c2=O)C1,1.53%
18,CCSc1ccc(C(C)NC(=O)CCS(C)(=O)=O)cc1 (stereo unspecified),-9.87%
19,CCOc1ccccc1NC(=O)NCc1ccoc1,-1.18%
